The text below walks through data of PMC2774495 (Cancer chemotherapy and pharmacology, 2009).

The target in data set [1] is T1, expressed CYP2C19 (Homo sapiens, UniProt P33261). The note with it: read-out: Ki values, expressed CYP2C19; expressed 2C19 52 pmol/ml, S-mephenytoin 10–75 μM, mean ± SE, competitive model.
The target in another data set is T2, expressed CYP2B6 (Homo sapiens, UniProt P20813).
T2 sequence (P20813 1-491): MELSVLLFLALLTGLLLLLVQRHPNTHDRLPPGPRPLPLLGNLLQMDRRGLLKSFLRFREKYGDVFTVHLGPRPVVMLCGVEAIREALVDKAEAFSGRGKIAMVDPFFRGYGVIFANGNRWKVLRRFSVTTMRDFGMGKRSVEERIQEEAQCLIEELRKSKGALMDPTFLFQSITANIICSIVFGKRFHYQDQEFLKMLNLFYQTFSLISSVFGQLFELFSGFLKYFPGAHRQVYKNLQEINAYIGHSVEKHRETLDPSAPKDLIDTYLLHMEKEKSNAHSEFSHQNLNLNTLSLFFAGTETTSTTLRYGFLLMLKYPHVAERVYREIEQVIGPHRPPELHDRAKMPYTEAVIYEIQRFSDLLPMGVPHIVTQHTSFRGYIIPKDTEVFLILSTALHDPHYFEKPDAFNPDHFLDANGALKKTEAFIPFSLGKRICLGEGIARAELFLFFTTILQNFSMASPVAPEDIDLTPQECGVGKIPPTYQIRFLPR
In words: Inhibition of expressed CYP2B6. It is filed as biochemical. The note with it: read-out: Ki values, expressed CYP2B6; expressed CYP2B6 52 pmol/ml, efavirenz 10–75 μM, mean ± SE, competitive model.

The target of data set [2] is T3, CYP2C19 (Homo sapiens, UniProt P33261).
The conditions of data set [3]: cited from earlier work.
The target in data set [4] is T4, CYP2A6 (Homo sapiens, UniProt P11509).
T4 sequence (P11509 1-494): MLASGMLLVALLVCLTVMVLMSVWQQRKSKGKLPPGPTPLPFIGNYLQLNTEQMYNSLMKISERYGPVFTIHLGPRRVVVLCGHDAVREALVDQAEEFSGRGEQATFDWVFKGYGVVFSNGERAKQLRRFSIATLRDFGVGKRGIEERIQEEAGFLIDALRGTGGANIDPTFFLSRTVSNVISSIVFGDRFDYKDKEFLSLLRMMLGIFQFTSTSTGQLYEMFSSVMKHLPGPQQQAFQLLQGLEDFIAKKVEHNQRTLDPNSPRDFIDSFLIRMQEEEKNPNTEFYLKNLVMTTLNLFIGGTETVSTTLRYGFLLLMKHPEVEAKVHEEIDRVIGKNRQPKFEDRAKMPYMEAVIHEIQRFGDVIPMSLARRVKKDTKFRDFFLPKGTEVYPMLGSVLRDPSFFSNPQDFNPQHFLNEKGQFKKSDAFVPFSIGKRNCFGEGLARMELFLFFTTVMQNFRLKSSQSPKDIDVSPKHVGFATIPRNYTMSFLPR
In words: Inhibition of CYP2A6.

The target in data set [5] is T5, CYP2B6 (Homo sapiens, UniProt P20813).
T5 sequence (P20813 1-491): T2 sequence (P20813 1-491)
In words: Inhibition of CYP2B6.

Another data set deals with 2C9. As to conditions: read-out: Ki for inhibition of CYP2C9; in vitro; cited from earlier work.
Another data set concerns CYP1A2. As to conditions: read-out: Ki for inhibition of CYP1A2; in vitro; cited from earlier work.
The next data set addresses CYP2C9 (Homo sapiens, UniProt P11712). As to the kind of experiment: in vitro. As to conditions: microsomes, pH 7.4.
Data set [6] concerns the target T1, expressed CYP2C19. In words: biochemical.
In data set [7] the target is T4, CYP2A6. As to the kind of experiment: in vitro. The note with it: microsomes, pH 7.4.
A further data set concerns CYP isoforms. As to the kind of experiment: Assessment of time-dependent inactivation. Format: biochemical, human. As to conditions: preincubation 0 and 15 min with HLM and cofactors, data not shown.
In a further data set the test system is CYP3A. In words: Inhibition of CYP3A. It is filed as biochemical. The note with it: human, human liver microsomes, pH 7.4, probe midazolam 10 μM (1′-hydroxylation).
Data set [8] addresses T4, CYP2A6. In words: Prediction of in vivo AUC change of CYP2A6 substrates from in vitro Ki. As to conditions: for AUCI/AUCUI ratio expected in vivo, CYP2A6, free letrozole: unbound letrozole (fu 0.2–0.4).
For data set [9] the following is noted: cited from earlier work. The source holds these as a separate data set.
Data set [10] has as its target T5, CYP2B6. In words: in vitro. As to conditions: microsomes, pH 7.4.
In another data set the test system is CYP2C8. In words: Inhibition of CYP2C8. It is filed as biochemical. The note with it: human, human liver microsomes, pH 7.4, probe amodiaquine 5 μM (desethylation).
For data set [11] the following is noted: rat liver tissues; cited from earlier work.
For data set [12], the target named is T3, CYP2C19. As to the kind of experiment: biochemical.
The conditions of data set [13]: cited from earlier work. This is another data set of the same source.
For another data set, the target named is T6, expressed CYP2A6 (Homo sapiens, UniProt P11509).
T6 sequence (P11509 1-494): T4 sequence (P11509 1-494)
As to the kind of experiment: Inhibition of expressed CYP2A6. It is filed as biochemical.

For the next data set, the target named is CYP2D6 (Homo sapiens, UniProt P10635). As to the kind of experiment: in vitro. As to conditions: microsomes, pH 7.4.

The structures appear in SMILES notation. Read-outs that look alike come from different tables or passages of the source.

T1 sequence (P33261 whole entry): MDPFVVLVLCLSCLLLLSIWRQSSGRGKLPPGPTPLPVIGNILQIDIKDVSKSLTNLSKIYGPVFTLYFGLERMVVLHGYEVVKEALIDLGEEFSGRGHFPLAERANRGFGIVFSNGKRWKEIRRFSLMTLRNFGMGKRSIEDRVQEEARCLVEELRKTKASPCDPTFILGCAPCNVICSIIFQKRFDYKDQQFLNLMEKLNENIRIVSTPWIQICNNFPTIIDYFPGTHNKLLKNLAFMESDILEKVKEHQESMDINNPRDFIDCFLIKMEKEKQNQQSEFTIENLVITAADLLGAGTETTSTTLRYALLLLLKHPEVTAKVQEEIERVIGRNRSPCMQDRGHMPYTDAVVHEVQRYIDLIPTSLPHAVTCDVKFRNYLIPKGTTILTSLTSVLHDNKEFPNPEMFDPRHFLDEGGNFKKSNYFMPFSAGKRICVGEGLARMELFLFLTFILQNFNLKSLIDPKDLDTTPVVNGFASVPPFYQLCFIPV
T3 sequence (P33261 whole entry): as above
CYP2D6, sequence (P10635 whole entry): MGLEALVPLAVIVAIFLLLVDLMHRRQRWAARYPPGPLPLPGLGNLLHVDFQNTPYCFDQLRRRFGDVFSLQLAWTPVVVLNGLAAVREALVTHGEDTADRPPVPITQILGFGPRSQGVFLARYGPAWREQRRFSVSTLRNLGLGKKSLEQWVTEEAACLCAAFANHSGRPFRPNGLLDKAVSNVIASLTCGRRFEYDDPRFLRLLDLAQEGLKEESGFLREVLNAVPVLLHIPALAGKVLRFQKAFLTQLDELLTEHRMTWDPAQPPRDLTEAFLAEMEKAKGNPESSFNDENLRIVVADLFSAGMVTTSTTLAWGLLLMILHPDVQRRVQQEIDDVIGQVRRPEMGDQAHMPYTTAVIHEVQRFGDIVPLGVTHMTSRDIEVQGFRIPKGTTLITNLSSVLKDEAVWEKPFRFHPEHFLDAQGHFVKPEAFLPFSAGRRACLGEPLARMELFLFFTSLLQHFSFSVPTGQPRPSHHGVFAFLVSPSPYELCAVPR
CYP2C9, sequence (P11712 whole entry): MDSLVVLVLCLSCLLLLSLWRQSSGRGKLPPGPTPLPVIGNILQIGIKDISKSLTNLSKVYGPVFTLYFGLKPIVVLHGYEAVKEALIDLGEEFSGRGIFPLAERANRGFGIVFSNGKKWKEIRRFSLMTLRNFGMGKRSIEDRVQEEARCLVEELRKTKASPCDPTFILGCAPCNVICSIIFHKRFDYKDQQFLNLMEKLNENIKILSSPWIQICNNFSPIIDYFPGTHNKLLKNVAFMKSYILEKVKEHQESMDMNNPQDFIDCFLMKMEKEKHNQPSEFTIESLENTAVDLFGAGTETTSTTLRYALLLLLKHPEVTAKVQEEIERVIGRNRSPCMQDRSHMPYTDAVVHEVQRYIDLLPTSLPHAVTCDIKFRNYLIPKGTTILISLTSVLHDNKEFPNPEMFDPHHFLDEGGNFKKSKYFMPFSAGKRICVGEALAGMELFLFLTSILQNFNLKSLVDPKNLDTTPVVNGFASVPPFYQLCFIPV

`N#Cc1ccc(C(O)c2ccc(C#N)cc2)cc1` [letrozole metabolite, 4,4′-methanol-bisbenzonitrile]: the Ki at expressed CYP2C19 [1] was 4.5 ± 0.7 µM; on expressed CYP2B6, 40.4 ± 14.6 µM; at CYP2C19 [2] (read-out: Ki values, CYP2C19, HLMs, HLMs (SD-101) 0.5 mg/ml, S-mephenytoin 10–75 μM, mean ± SE, competitive model), 19.5 ± 0.5 µM; at CYP2B6 [5] (read-out: Ki values, CYP2B6, HLMs, HLMs (HL-091499) 0.5 mg/ml, efavirenz 10–75 μM, mean ± SE, competitive model) it was 12.9 ± 3.8 µM. Further, the “Mode of inhibition of CYP2C19” value on CYP2C19 [2] (Dixon plots and enzyme inhibition models, HLMs and expressed CYP2C19) is on record as “competitive”. Further, in [3] (human), the “Fraction of letrozole dose accounted for by the metabolite” value is given as “over 60%”. For the same molecule, the “Effect on CYP2A6 activity” value on CYP2A6 [4] (HLMs, 0–100 μM) is given as “lack of any effect”. Besides, the “Mode of inhibition of CYP2B6” value at CYP2B6 [5] (Dixon plots and enzyme inhibition models, HLMs and expressed CYP2B6) is recorded as “competitive”.

As to `CC(C)(C#N)c1cc(Cn2cncn2)cc(C(C)(C)C#N)c1` [anastrozole], the inhibition constant (Ki) in the data set on 2C9 and in the data set with CYP1A2 was 8 to 10 µM each time.

`N#Cc1ccc(C(c2ccc(C#N)cc2)n2cncn2)cc1` [letrozole, 4,4′-[(1H-1,2,4-triazol-1-yl)methylene] bis-benzonitrile] came in with an inhibition at 60 min, 100 μM against CYP2C9 of less than 20%. Besides, the half-inhibitory concentration (IC50) at expressed CYP2C19 [6] stood at 62.9 µM; against CYP2C19 [12], 24.8 µM; on CYP2A6 [4], 5.9 µM; against expressed CYP2A6, 12.5 µM. Also, the Ki was determined as 33.3 µM at expressed CYP2C19 [6] (Ki values, expressed CYP2C19, expressed 2C19 52 pmol/ml, S-mephenytoin 10–75 μM, mean ± SE, competitive model); 42.2 ± 3.8 µM on CYP2C19 [12]; 5 ± 2.4 µM on expressed CYP2A6. Moreover, affinity on CYP2A6 [7] was put at a Ki at 15 min of 4.6 ± 0.1 µM. The “Time dependence of inhibition of CYPs” value with CYP isoforms is listed as “not time dependent”. Further, the inhibition at 5 min, 100 μM in the data set on CYP3A is less than 20%. For the same molecule, the “AUCI/AUCUI ratio expected in vivo, CYP2A6, total letrozole” value at CYP2A6 [8] (letrozole plasma concentration 0.5–1 μM (bound + unbound), Ki from HLMs) was 1.11–1.22. Also, the “Predicted increase in exposure of CYP2A6 substrates (maximum)” value on CYP2A6 [8] (predicted from in vitro Ki) is on record as 11–22%. The “AUCI/AUCUI ratio expected in vivo, CYP2A6, free letrozole” value on CYP2A6 [8] (Ki from HLMs) is listed as “close to unity”; at CYP2A6 [8] (Ki from HLMs, listed as Letrozole) it was 1.04–1.09. In addition, the Plasma protein binding in data set [9] was 60%. Moreover, at CYP2C19 [2] (human), the “Fold Ki for CYP2C19 above therapeutic plasma concentrations of letrozole” value is “over 40 fold”. Moreover, on CYP2C19 [2] (microsomes), the “Mode of inhibition of CYP2C19” value is listed as “competitive”. At CYP2B6 [10], this molecule registered an inhibition at 10 min, 100 μM of less than 20%. Also, the inhibition at 15 min, 100 μM in the data set with CYP2C8 is less than 20%. Also, the “Liver tissue concentration relative to plasma” value in data set [11] was “> sevenfold”. The Absolute bioavailability in [3] is reported as 99.9%. For the same molecule, the “Exposure at steady state higher than at a single dose” value in data set [3] is reported as 28%. Also, the “Radioactivity in plasma accounted by unchanged drug” value in [3] (following 14C-labeled letrozole (2.5 mg)) is given as “Approximately 82%”. The Cmax in data set [3] (read-out: Average maximum plasma concentration (Cmax) at steady state, women with breast cancer, 2.5 mg/day) is roughly 0.5 µM. In [13], the “Effect on the pharmacokinetics of known CYP substrates including warfarin, diazepam, and tamoxifen” value was “lack of letrozole's effect”. The “Mode of inhibition of CYP2A6” value at CYP2A6 [4] (Dixon plots and enzyme inhibition models, HLMs and expressed CYP2A6) is given as “competitive”. Also, at CYP2D6, the inhibition at 30 min, 100 μM was less than 20%.
